Laboratory results reported in US10072026B2, “Crystalline form of 3-((1R,3s,5S)-3-((7-((5-methyl-1H-pyrazol-3-yl)amino)-1,6-naphthyridin-5-yl)amino)-8-azabicyclo[3.2.1]octan-8-yl)propanenitrile” (priority 2015, dated 2018).
Where two headings read alike, the source gives them in different places.

What was measured:
[1] = system: IL-13 induced STAT6 phosphorylation in BEAS-2B human lung epithelial cells; test: AlphaScreen cellular JAK potency assay, BEAS-2B; conditions: for BEAS2B pIC50: IL-13 induced STAT6 phosphorylation, BEAS-2B cells; for IC50: Homo sapiens, BEAS-2B, read-out: BEAS2B pIC50 (converted)
[2] = system: IL-4 induced STAT6 phosphorylation in THP-1 human monocytic cells; test: Cellular JAK potency assay, THP-1
JAK1 = JAK1 (Homo sapiens (Human), UniProt P23458); test: LanthaScreen JAK biochemical assay (JAK1)
JAK1, sequence (P23458 whole entry): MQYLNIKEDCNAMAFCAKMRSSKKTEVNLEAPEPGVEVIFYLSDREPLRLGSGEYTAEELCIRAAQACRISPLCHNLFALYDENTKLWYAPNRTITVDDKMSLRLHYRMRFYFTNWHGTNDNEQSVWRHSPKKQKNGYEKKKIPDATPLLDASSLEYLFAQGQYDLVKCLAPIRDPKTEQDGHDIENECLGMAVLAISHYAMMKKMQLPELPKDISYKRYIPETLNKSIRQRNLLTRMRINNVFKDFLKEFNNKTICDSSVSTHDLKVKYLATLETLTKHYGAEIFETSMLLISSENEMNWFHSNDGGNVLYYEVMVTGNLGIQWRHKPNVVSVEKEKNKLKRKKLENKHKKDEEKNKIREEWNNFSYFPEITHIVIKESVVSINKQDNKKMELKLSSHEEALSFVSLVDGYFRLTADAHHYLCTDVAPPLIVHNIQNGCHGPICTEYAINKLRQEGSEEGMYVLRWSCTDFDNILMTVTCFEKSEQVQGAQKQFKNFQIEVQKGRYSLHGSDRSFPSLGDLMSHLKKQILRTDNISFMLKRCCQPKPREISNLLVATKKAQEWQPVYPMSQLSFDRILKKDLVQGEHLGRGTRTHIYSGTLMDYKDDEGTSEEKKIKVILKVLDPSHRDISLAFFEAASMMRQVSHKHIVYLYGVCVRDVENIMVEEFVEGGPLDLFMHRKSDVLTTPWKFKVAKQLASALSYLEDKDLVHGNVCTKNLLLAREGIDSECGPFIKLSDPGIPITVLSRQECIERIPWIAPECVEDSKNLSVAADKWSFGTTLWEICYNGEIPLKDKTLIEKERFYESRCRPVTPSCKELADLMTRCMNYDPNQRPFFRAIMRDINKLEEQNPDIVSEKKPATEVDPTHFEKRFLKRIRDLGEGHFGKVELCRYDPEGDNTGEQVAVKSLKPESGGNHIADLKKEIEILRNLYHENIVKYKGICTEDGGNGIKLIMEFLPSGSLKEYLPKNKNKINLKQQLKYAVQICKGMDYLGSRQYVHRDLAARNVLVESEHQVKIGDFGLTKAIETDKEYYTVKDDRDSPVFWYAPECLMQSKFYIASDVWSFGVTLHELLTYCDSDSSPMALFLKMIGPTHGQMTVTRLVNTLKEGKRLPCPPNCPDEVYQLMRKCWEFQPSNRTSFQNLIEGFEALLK

JAK2 = JAK2 (Homo sapiens (Human), UniProt O60674); test: LanthaScreen JAK biochemical assay (JAK2); conditions: for Ki: read-out: JAK 2 (pKi) (converted)
JAK2, sequence (O60674 whole entry): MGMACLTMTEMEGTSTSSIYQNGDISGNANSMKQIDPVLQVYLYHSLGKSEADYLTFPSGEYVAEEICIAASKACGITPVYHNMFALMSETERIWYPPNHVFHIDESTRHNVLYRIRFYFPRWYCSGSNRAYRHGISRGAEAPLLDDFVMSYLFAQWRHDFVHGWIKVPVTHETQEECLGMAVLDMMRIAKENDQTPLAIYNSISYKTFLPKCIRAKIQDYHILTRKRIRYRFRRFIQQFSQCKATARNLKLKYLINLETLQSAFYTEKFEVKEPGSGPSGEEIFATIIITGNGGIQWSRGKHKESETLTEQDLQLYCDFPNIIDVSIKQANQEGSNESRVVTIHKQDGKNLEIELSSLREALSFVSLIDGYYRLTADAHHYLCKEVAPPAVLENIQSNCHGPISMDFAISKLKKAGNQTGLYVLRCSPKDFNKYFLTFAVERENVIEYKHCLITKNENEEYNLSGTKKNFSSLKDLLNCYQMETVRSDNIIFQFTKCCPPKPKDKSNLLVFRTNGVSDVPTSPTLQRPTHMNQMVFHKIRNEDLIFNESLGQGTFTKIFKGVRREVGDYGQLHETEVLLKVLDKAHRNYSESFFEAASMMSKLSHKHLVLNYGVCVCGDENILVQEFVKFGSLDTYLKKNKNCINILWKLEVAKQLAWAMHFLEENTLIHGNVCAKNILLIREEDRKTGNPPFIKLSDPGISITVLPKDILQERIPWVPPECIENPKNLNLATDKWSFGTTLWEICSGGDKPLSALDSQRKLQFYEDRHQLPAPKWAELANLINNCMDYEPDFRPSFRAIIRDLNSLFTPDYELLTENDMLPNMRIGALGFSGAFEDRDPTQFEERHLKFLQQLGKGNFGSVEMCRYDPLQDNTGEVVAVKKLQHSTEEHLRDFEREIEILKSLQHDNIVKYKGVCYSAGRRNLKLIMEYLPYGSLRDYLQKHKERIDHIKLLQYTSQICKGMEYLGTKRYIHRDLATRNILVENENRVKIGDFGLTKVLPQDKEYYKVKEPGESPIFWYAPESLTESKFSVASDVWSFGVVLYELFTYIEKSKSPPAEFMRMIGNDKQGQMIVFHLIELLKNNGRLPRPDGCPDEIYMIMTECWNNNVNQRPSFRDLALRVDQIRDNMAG

[3] = IL-4 induced STAT6 phosphorylation, THP-1 cells
[4] = Homo sapiens, THP-1, read-out: THP-1 IL4 pIC50 (converted)
[5] = THP-1 cells, IL-4 induced STAT6 phosphorylation

| Compound | JAK 1 (pKi) (JAK1) | JAK 2 (pKi) (JAK2) | THP-1 IL4 pIC50 [2, 5] | other results |
| --- | --- | --- | --- | --- |
| Cc1cc(Nc2cc3ncccc3c(N[C@@H]3C[C@H]4CCC[C@@H](C3)N4Cc3ccc(C#N)nc3)n2)n[nH]1 [Example 1-54] | – | – | – | BEAS2B pIC50 [1]: B (B represents a pEC50 value between 6.7 and 7.5 (EC50 between 200 nM and 32 nM)) |
| Cc1cc(Nc2cc3ncccc3c(N[C@@H]3C[C@H]4CCC[C@@H](C3)N4S(=O)(=O)N3CCCC3)n2)n[nH]1 [Example 4-27] | – | – | – | BEAS2B pIC50 [1]: A (A represents a pEC50 value≥7.5 (EC50≤32 nM)); THP-1 IL4 pIC50 [2, 3]: A (A represents a pEC50 value≥7.5 (EC50≤32 nM)) |
| Cc1cc(Nc2cc3ncccc3c(N[C@@H]3C[C@H]4CCC[C@@H](C3)N4S(=O)(=O)N3CCC3)n2)n[nH]1 [Example 4-29] | A (A represents a pKi value≥10 (Ki≤0.1 nM)) | – | – | BEAS2B pIC50 [1]: A (A represents a pEC50 value≥7.5 (EC50≤32 nM)); THP-1 IL4 pIC50 [2, 3]: A (A represents a pEC50 value≥7.5 (EC50≤32 nM)) |
| COc1ccc2c(N[C@@H]3C[C@H]4CC[C@@H](C3)N4CCCC#N)nc(Nc3cc(C)[nH]n3)cc2n1 [Example 5-2] | B (B represents a pKi value between 9 and 10 (Ki between 1 nM and 0.1 nM)) | – | – | BEAS2B pIC50 [1]: A (A represents a pEC50 value≥7.5 (EC50≤32 nM)); THP-1 IL4 pIC50 [2, 3]: B (B represents a pEC50 value between 6.7 and 7.5 (EC50 between 200 nM and 32 nM)) |
| COc1ccc2c(N[C@@H]3C[C@H]4CC[C@@H](C3)N4CC(C)C)nc(Nc3cc(C)[nH]n3)cc2n1 [Example 5-4] | B (B represents a pKi value between 9 and 10 (Ki between 1 nM and 0.1 nM)) | – | – | BEAS2B pIC50 [1]: A (A represents a pEC50 value≥7.5 (EC50≤32 nM)); THP-1 IL4 pIC50 [2, 3]: A (A represents a pEC50 value≥7.5 (EC50≤32 nM)) |
| CCS(=O)(=O)N1[C@@H]2CC[C@H]1C[C@H](Nc1nc(Nc3cc(C)[nH]n3)cc3nc(CN4CCOCC4)ccc13)C2 [Example 5-16] | – | – | – | IC50 [1]: 31.6 to 200 nM; IC50 [2, 4]: 31.6 to 200 nM |
| C=CCOC(=O)N1[C@@H]2CC[C@H]1C[C@H](Nc1nc(Nc3cc(C)[nH]n3)cc3nc(CN4CCOCC4)ccc13)C2 [Example 5-17] | – | – | – | BEAS2B pIC50 [1]: A (A represents a pEC50 value≥7.5 (EC50≤32 nM)); THP-1 IL4 pIC50 [2, 3]: B (B represents a pEC50 value between 6.7 and 7.5 (EC50 between 200 nM and 32 nM)) |
| Cc1cc(Nc2cc3nc(CN4CCOCC4)ccc3c(N[C@@H]3C[C@H]4CC[C@@H](C3)N4S(=O)(=O)N3CCC3)n2)n[nH]1 [Example 5-21] | – | – | – | IC50 [1]: < 31.6 nM; IC50 [2, 4]: < 31.6 nM |
| Cc1cc(Nc2cc3nc(CN4CCOCC4)ccc3c(N[C@@H]3C[C@H]4CCC[C@@H](C3)N4S(=O)(=O)c3cccnc3)n2)n[nH]1 [Example 5-27] | – | – | – | BEAS2B pIC50 [1]: A (A represents a pEC50 value≥7.5 (EC50≤32 nM)); THP-1 IL4 pIC50 [2, 3]: A (A represents a pEC50 value≥7.5 (EC50≤32 nM)) |
| COc1cnc2cc(Nc3cc(C)[nH]n3)nc(N[C@@H]3C[C@H]4CC[C@@H](C3)N4CCCC#N)c2c1 [Example 6-12] | B (B represents a pKi value between 9 and 10 (Ki between 1 nM and 0.1 nM)) | B (B represents a pKi value between 9 and 10 (Ki between 1 nM and 0.1 nM)) | B (B represents a pEC50 value between 6.7 and 7.5 (EC50 between 200 nM and 32 nM)) | – |
| COC(=O)c1cnc2cc(Nc3cc(C)[nH]n3)nc(N[C@@H]3C[C@H]4CC[C@@H](C3)N4CCC#N)c2c1 [Example 6-32] | A (A represents a pKi value≥10 (Ki≤0.1 nM)) | A (A represents a pKi value≥10 (Ki≤0.1 nM)) | A (A represents a pEC50 value≥7.5 (EC50≤32 nM)) | – |
| CCC(=O)N1[C@@H]2CC[C@H]1C[C@H](Nc1nc(Nc3cc(C)[nH]n3)cc3ncc(C(=O)OC)cc13)C2 [Example 6-36] | – | – | – | Ki (JAK2): 0.1 to 1 nM; IC50 [2, 4]: 31.6 to 200 nM; Ki (JAK1; read-out: JAK 1 (pKi) (converted)): 0.1 to 1 nM |
| C=CCOC(=O)N1[C@@H]2CC[C@H]1C[C@H](Nc1nc(Nc3cc(C)[nH]n3)cc3ncc(C(=O)OC)cc13)C2 [Example 6-40] | B (B represents a pKi value between 9 and 10 (Ki between 1 nM and 0.1 nM)) | B (B represents a pKi value between 9 and 10 (Ki between 1 nM and 0.1 nM)) | A (A represents a pEC50 value≥7.5 (EC50≤32 nM)) | – |
| COC(=O)c1cnc2cc(Nc3cc(C)[nH]n3)nc(N[C@@H]3C[C@H]4CC[C@@H](C3)N4CCF)c2c1 [Example 6-43] | B (B represents a pKi value between 9 and 10 (Ki between 1 nM and 0.1 nM)) | B (B represents a pKi value between 9 and 10 (Ki between 1 nM and 0.1 nM)) | B (B represents a pEC50 value between 6.7 and 7.5 (EC50 between 200 nM and 32 nM)) | – |
| COC(=O)c1cnc2cc(Nc3cc(C)[nH]n3)nc(N[C@@H]3C[C@H]4CC[C@@H](C3)N4CCC(F)(F)F)c2c1 [Example 6-45] | B (B represents a pKi value between 9 and 10 (Ki between 1 nM and 0.1 nM)) | B (B represents a pKi value between 9 and 10 (Ki between 1 nM and 0.1 nM)) | B (B represents a pEC50 value between 6.7 and 7.5 (EC50 between 200 nM and 32 nM)) | – |
| COC(=O)c1cnc2cc(Nc3cc(C)[nH]n3)nc(N[C@@H]3C[C@H]4CC[C@@H](C3)N4C[C@H]3CCC(=O)O3)c2c1 [Example 6-46] | B (B represents a pKi value between 9 and 10 (Ki between 1 nM and 0.1 nM)) | B (B represents a pKi value between 9 and 10 (Ki between 1 nM and 0.1 nM)) | C (C represents a pEC50 value<6.7 (EC50>200 nM)) | – |
| Cc1cc(Nc2cc3ncc(S(C)(=O)=O)cc3c(N[C@@H]3C[C@H]4CC[C@@H](C3)N4CCC#N)n2)n[nH]1 [Example 6-50] | A (A represents a pKi value≥10 (Ki≤0.1 nM)) | A (A represents a pKi value≥10 (Ki≤0.1 nM)) | C (C represents a pEC50 value<6.7 (EC50>200 nM)) | – |
| Cc1cc(Nc2cc3ncc(S(C)(=O)=O)cc3c(N[C@@H]3C[C@H]4CC[C@@H](C3)N4C(=O)C(F)F)n2)n[nH]1 [Example 6-52] | – | – | – | Ki (JAK2): 0.1 to 1 nM; IC50 [2, 4]: > 200 nM; Ki (JAK1): 0.1 to 1 nM |
| Cc1cc(Nc2cc3ncc(S(C)(=O)=O)cc3c(N[C@@H]3C[C@H]4CC[C@@H](C3)N4CCF)n2)n[nH]1 [Example 6-54] | B (B represents a pKi value between 9 and 10 (Ki between 1 nM and 0.1 nM)) | B (B represents a pKi value between 9 and 10 (Ki between 1 nM and 0.1 nM)) | C (C represents a pEC50 value<6.7 (EC50>200 nM)) | – |
| COc1ccnc2cc(Nc3cc(C)[nH]n3)nc(N[C@@H]3C[C@H]4CC[C@@H](C3)N4CC(F)F)c12 [Example 7-8] | B (B represents a pKi value between 9 and 10 (Ki between 1 nM and 0.1 nM)) | B (B represents a pKi value between 9 and 10 (Ki between 1 nM and 0.1 nM)) | B (B represents a pEC50 value between 6.7 and 7.5 (EC50 between 200 nM and 32 nM)) | – |
| CCS(=O)(=O)N1[C@@H]2CC[C@H]1C[C@H](Nc1nc(Nc3cc(C)[nH]n3)c(F)c3ncccc13)C2 [Example 8-3] | B (B represents a pKi value between 9 and 10 (Ki between 1 nM and 0.1 nM)) | B (B represents a pKi value between 9 and 10 (Ki between 1 nM and 0.1 nM)) | A (A represents a pEC50 value≥7.5 (EC50≤32 nM)) | – |
| Cc1cnc2c(F)c(Nc3cc(C)[nH]n3)nc(N[C@@H]3C[C@H]4CC[C@@H](C3)N4S(C)(=O)=O)c2c1 [Example 8-17] | A (A represents a pKi value≥10 (Ki≤0.1 nM)) | A (A represents a pKi value≥10 (Ki≤0.1 nM)) | B (B represents a pEC50 value between 6.7 and 7.5 (EC50 between 200 nM and 32 nM)) | – |
| Cc1cnc2c(F)c(Nc3cc(C)[nH]n3)nc(N[C@@H]3C[C@H]4CC[C@@H](C3)N4CCC#N)c2c1 [Example 8-18] | B (B represents a pKi value between 9 and 10 (Ki between 1 nM and 0.1 nM)) | B (B represents a pKi value between 9 and 10 (Ki between 1 nM and 0.1 nM)) | B (B represents a pEC50 value between 6.7 and 7.5 (EC50 between 200 nM and 32 nM)) | – |
| Cc1cnc2c(F)c(Nc3cc(C)[nH]n3)nc(N[C@@H]3C[C@H]4CC[C@@H](C3)N4S(=O)(=O)N3CC(C#N)C3)c2c1 [Example 8-19] | B (B represents a pKi value between 9 and 10 (Ki between 1 nM and 0.1 nM)) | B (B represents a pKi value between 9 and 10 (Ki between 1 nM and 0.1 nM)) | C (C represents a pEC50 value<6.7 (EC50>200 nM)) | – |
| Cc1cnc2c(F)c(Nc3cc(C)[nH]n3)nc(N[C@@H]3C[C@H]4CCC[C@@H](C3)N4CCC#N)c2c1 [Example 8-21] | B (B represents a pKi value between 9 and 10 (Ki between 1 nM and 0.1 nM)) | B (B represents a pKi value between 9 and 10 (Ki between 1 nM and 0.1 nM)) | B (B represents a pEC50 value between 6.7 and 7.5 (EC50 between 200 nM and 32 nM)) | – |
| CCS(=O)(=O)N1[C@@H]2CCC[C@H]1C[C@H](Nc1nc(Nc3cc(C)[nH]n3)cc3ncccc13)C2 [Example 10, N^5-((1R,3s,5S)-9-(ethylsulfonyl)-9-azabicyclo[3.3.1]nonan-3-yl)-N^7-(5-methyl-1H-pyrazol-3-yl)-1,6-naphthyridine-5,7-diamine] | – | – | – | IC50 [1]: < 31.6 nM; IC50 [2, 4]: < 31.6 nM |
| Cc1cc(Nc2cc3nc(CN4CCOCC4)ccc3c(N[C@@H]3C[C@H]4CC[C@@H](C3)N4CC(F)(F)F)n2)n[nH]1 [Example 15, N^7-(5-methyl-1H-pyrazol-3-yl)-2-(morpholinomethyl)-N^5-((1R,3s,5S)-8-(2,2,2-trifluoroethyl)-8-azabicyclo[3.2.1]octan-3-yl)-1,6-naphthyridine-5,7-diamine] | – | – | – | IC50 [1]: < 31.6 nM; IC50 [2, 4]: < 31.6 nM |
| CNC(=O)CN1[C@@H]2CCC[C@H]1C[C@H](Nc1nc(Nc3cc(C)[nH]n3)cc3ncccc13)C2 [Example 17, N-methyl-2-((1R,3s,5S)-3-((7-((5-methyl-1H-pyrazol-3-yl)amino)-1,6-naphthyridin-5-yl)amino)-9-azabicyclo[3.3.1]nonan-9-yl)acetamide] | – | – | – | IC50 [1]: 31.6 to 200 nM; IC50 [2, 4]: 31.6 to 200 nM |
